Values joined by “and” are separate entries in the source; they are usually repeats but may differ in a detail not shown here. Equal entries are not always repeated. Inconclusive results and toxic doses are left out.
Test system: BDF1 mice, intracerebral L1210 leukemia, survival T/C
Test: NCI In Vivo Anticancer Drug Screen. Data for tumor model L1210 Leukemia (intracerebral) in B6D2F1 (BDF1) mice
Details: higher = longer survival
Outline: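 Tumour was transplanted, animals received compound or vehicle, then survival in each group was measured and treated divided by control.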

[1] = endpoint: mean survival time, dose: 1.0 mg/kg/injection, schedule: Q01DX005 (ip), vehicle: saline
[2] = endpoint: mean survival time, dose: 1.0 mg/kg/injection, schedule: Q01DX009 (ip), vehicle: saline
[3] = endpoint: mean survival time, dose: 2.0 mg/kg/injection, schedule: Q01DX005 (ip), vehicle: saline
[4] = endpoint: mean survival time, dose: 2.0 mg/kg/injection, schedule: Q01DX009 (ip), vehicle: saline
[5] = endpoint: mean survival time, dose: 2.0 mg/kg/injection, schedule: Q04DX003 (ip), vehicle: saline
[6] = endpoint: mean survival time, dose: 4.0 mg/kg/injection, schedule: Q01DX005 (ip), vehicle: saline
[7] = endpoint: mean survival time, dose: 4.0 mg/kg/injection, schedule: Q04DX003 (ip), vehicle: saline
[8] = endpoint: mean survival time, dose: 8.0 mg/kg/injection, schedule: Q04DX003 (ip), vehicle: saline
[9] = endpoint: mean survival time, dose: 20.0 mg/kg/injection, schedule: Q01DX009 (ip), vehicle: saline

SMILES: COc1cccc2c1C(=O)c1c(O)c3c(c(O)c1C2=O)C[C@@](O)(C(=O)CO)C[C@@H]3OC1CC(N)C(O)C(C)O1 (some centres undefined)
- T/C (endpoint: mean survival time, dose: 0.05 mg/kg/injection, schedule: Q03HX024 (ip), vehicle: saline): 106 % of control
- T/C (endpoint: mean survival time, dose: 0.1 mg/kg/injection, schedule: Q03HX024 (ip), vehicle: saline): 103 % of control
- T/C (endpoint: mean survival time, dose: 0.2 mg/kg/injection, schedule: Q03HX024 (ip), vehicle: saline): 100 % of control
- T/C (endpoint: mean survival time, dose: 0.4 mg/kg/injection, schedule: Q03HX024 (ip), vehicle: saline): 102 % of control
- T/C (endpoint: mean survival time, dose: 0.5 mg/kg/injection, schedule: Q01DX005 (ip), vehicle: saline): 104 % of control
- T/C (endpoint: mean survival time, dose: 0.5 mg/kg/injection, schedule: Q01DX009 (ip), vehicle: saline): 101 % of control
- T/C (endpoint: mean survival time, dose: 0.5 mg/kg/injection, schedule: Q04DX003 (ip), vehicle: saline): 105 % of control
- T/C (endpoint: mean survival time, dose: 0.8 mg/kg/injection, schedule: Q03HX024 (ip), vehicle: saline): 101 % of control
- T/C [1]: 104 % of control
- T/C [2]: 102 % of control
- T/C (endpoint: mean survival time, dose: 1.0 mg/kg/injection, schedule: Q04DX003 (ip), vehicle: saline): 102 % of control
- T/C [3]: 107 % of control
- T/C [4]: 101 % of control
- T/C [5]: 101 % of control
- T/C [6]: 106 % of control
- T/C [7]: 108 % of control
- T/C [8]: 100 % of control

SMILES: Cc1cccc2c(Nc3ccc(NS(C)(=O)=O)cc3)c3ccccc3nc12
- T/C (endpoint: mean survival time, dose: 10.0 mg/kg/injection, schedule: Q01DX009 (ip), vehicle: saline): 100 % of control
- T/C (endpoint: mean survival time, dose: 10.0 mg/kg/injection, schedule: Q01DX009 (sc), vehicle: saline): 96 % of control
- T/C [9]: 110 % of control
- T/C (endpoint: mean survival time, dose: 20.0 mg/kg/injection, schedule: Q01DX009 (sc), vehicle: saline): 101 % of control
- T/C (endpoint: mean survival time, dose: 40.0 mg/kg/injection, schedule: Q01DX009 (ip), vehicle: saline): 112 % of control
- T/C (endpoint: mean survival time, dose: 40.0 mg/kg/injection, schedule: Q01DX009 (sc), vehicle: saline): 97 % of control
- T/C (endpoint: mean survival time, dose: 80.0 mg/kg/injection, schedule: Q01DX009 (ip), vehicle: saline): 87 % of control
- T/C (endpoint: mean survival time, dose: 80.0 mg/kg/injection, schedule: Q01DX009 (sc), vehicle: saline): 104 % of control

SMILES: CNC(=N)c1ccc(NC(=N)c2ccc(NC(=O)Nc3cccc(NC(=O)Nc4ccc(C(=N)Nc5ccc(C(=N)NC)cc5)cc4)c3)cc2)cc1
- T/C (endpoint: mean survival time, dose: 50.0 mg/kg/injection, schedule: Q01DX001 (ip), vehicle: water): 106 % of control
- T/C (endpoint: mean survival time, dose: 75.0 mg/kg/injection, schedule: Q01DX001 (ip), vehicle: water): 109 % of control

SMILES: COCCOC1=C(N2CC2)C(=O)C(OCCOC)=C(N2CC2)C1=O
- T/C (endpoint: mean survival time, dose: 0.25 mg/kg/injection, schedule: Q01DX009 (ip), vehicle: saline): 98 % of control and 100 % of control
- T/C [2]: 105 % of control and 109 % of control
- T/C [4]: 104 % of control and 112 % of control and 114 % of control

SMILES: Nc1nncs1
- T/C (endpoint: mean survival time, dose: 135.0 mg/kg/injection, schedule: Q01DX009 (ip), vehicle: saline): 101 % of control
- T/C (endpoint: median survival time, dose: 64.0 mg/kg/injection, schedule: Q01DX005 (ip), vehicle: saline with Tween-80): 120 % of control
- T/C (endpoint: median survival time, dose: 512.0 mg/kg/injection, schedule: Q01DX005 (ip), vehicle: saline with Tween-80): 100 % of control

SMILES: CN(N=O)C(=O)NCCCCCNC(=O)N(C)N=O
- T/C (endpoint: mean survival time, dose: 210.0 mg/kg/injection, schedule: Q01DX001 (ip), vehicle: carboxymethylcellulose (CMC)): 113 % of control
- T/C (endpoint: mean survival time, dose: 420.0 mg/kg/injection, schedule: Q01DX001 (ip), vehicle: carboxymethylcellulose (CMC)): 123 % of control

SMILES: O=NN(CCCl)C(=O)NC1CCSc2ccccc21 (centres undefined)
- T/C (endpoint: mean survival time, dose: 26.0 mg/kg/injection, schedule: Q01DX001 (ip), vehicle: other): 164 % of control
- T/C (endpoint: mean survival time, dose: 27.0 mg/kg/injection, schedule: Q01DX001 (ip), vehicle: other): 206 % of control
- T/C (endpoint: mean survival time, dose: 40.0 mg/kg/injection, schedule: Q01DX001 (ip), vehicle: other): 201 % of control and 261 % of control
- T/C (endpoint: mean survival time, dose: 60.0 mg/kg/injection, schedule: Q01DX001 (ip), vehicle: other): 263 % of control and 288 % of control
- T/C (endpoint: mean survival time, dose: 90.0 mg/kg/injection, schedule: Q01DX001 (ip), vehicle: other): 161 % of control and 222 % of control
- T/C (endpoint: mean survival time, dose: 135.0 mg/kg/injection, schedule: Q01DX001 (ip), vehicle: other): 230 % of control

SMILES: CN(N=O)C(=O)NCCCNC(=O)N(C)N=O
- T/C (endpoint: mean survival time, dose: 150.0 mg/kg/injection, schedule: Q01DX001 (ip), vehicle: carboxymethylcellulose (CMC)): 108 % of control
- T/C (endpoint: mean survival time, dose: 300.0 mg/kg/injection, schedule: Q01DX001 (ip), vehicle: carboxymethylcellulose (CMC)): 119 % of control

SMILES: CN=NNc1nc[nH]c1C(N)=O
- T/C (endpoint: mean survival time, dose: 12.5 mg/kg/injection, schedule: Q01DX Z (ip), vehicle: carboxymethylcellulose (CMC)): 102 % of control
- T/C (endpoint: mean survival time, dose: 25.0 mg/kg/injection, schedule: Q01DX Z (ip), vehicle: carboxymethylcellulose (CMC)): 114 % of control
- T/C (endpoint: mean survival time, dose: 50.0 mg/kg/injection, schedule: Q01DX Z (ip), vehicle: carboxymethylcellulose (CMC)): 111 % of control
- T/C (endpoint: mean survival time, dose: 100.0 mg/kg/injection, schedule: Q01DX Z (ip), vehicle: carboxymethylcellulose (CMC)): 87 % of control

SMILES: CC12CC3(C)CC(C)(C1)CC(NC(=O)N(CCF)N=O)(C2)C3
- T/C (endpoint: mean survival time, dose: 82.0 mg/kg/injection, schedule: Q01DX001 (ip), vehicle: other): 113 % of control

SMILES: O=C1C(Cl)=C(N2CC2)C(=O)C(Cl)=C1N1CC1
- T/C (endpoint: mean survival time, dose: 0.62 mg/kg/injection, schedule: Q01DX009 (ip), vehicle: Klucel (hydroxypropylcellulose) (HPC)): 98 % of control
- T/C (endpoint: mean survival time, dose: 0.62 mg/kg/injection, schedule: Q01DX009 (ip), vehicle: saline): 96 % of control
- T/C (endpoint: mean survival time, dose: 1.25 mg/kg/injection, schedule: Q01DX009 (ip), vehicle: Klucel (hydroxypropylcellulose) (HPC)): 98 % of control
- T/C (endpoint: mean survival time, dose: 1.25 mg/kg/injection, schedule: Q01DX009 (ip), vehicle: saline): 120 % of control and 96 % of control
- T/C (endpoint: mean survival time, dose: 2.5 mg/kg/injection, schedule: Q01DX009 (ip), vehicle: Klucel (hydroxypropylcellulose) (HPC)): 98 % of control
- T/C (endpoint: mean survival time, dose: 5.0 mg/kg/injection, schedule: Q01DX009 (ip), vehicle: Klucel (hydroxypropylcellulose) (HPC)): 96 % of control
- T/C (endpoint: mean survival time, dose: 10.0 mg/kg/injection, schedule: Q01DX009 (ip), vehicle: Klucel (hydroxypropylcellulose) (HPC)): 96 % of control
- T/C (endpoint: mean survival time, dose: 20.0 mg/kg/injection, schedule: Q01DX009 (ip), vehicle: Klucel (hydroxypropylcellulose) (HPC)): 90 % of control
- T/C [9]: 87 % of control

SMILES: CC[C@H]1CN2CCc3cc(OC)c(OC)cc3[C@@H]2C[C@@H]1C[C@H]1NCCc2cc(OC)c(OC)cc21
- T/C [1]: 101 % of control
- T/C [2]: 100 % of control
- T/C [3]: 100 % of control
- T/C [4]: 98 % of control
- T/C [5]: 101 % of control
- T/C [6]: 98 % of control
- T/C (endpoint: mean survival time, dose: 4.0 mg/kg/injection, schedule: Q01DX009 (ip), vehicle: saline): 101 % of control
- T/C [7]: 101 % of control
- T/C (endpoint: mean survival time, dose: 4.0 mg/kg/injection, schedule: Q08DX002 (ip), vehicle: saline): 100 % of control
- T/C (endpoint: mean survival time, dose: 8.0 mg/kg/injection, schedule: Q01DX005 (ip), vehicle: saline): 98 % of control
- T/C (endpoint: mean survival time, dose: 8.0 mg/kg/injection, schedule: Q01DX009 (ip), vehicle: saline): 100 % of control
- T/C [8]: 96 % of control
- T/C (endpoint: mean survival time, dose: 8.0 mg/kg/injection, schedule: Q08DX002 (ip), vehicle: saline): 97 % of control
- T/C (endpoint: mean survival time, dose: 16.0 mg/kg/injection, schedule: Q01DX005 (ip), vehicle: saline): 87 % of control
- T/C (endpoint: mean survival time, dose: 16.0 mg/kg/injection, schedule: Q04DX003 (ip), vehicle: saline): 104 % of control
- T/C (endpoint: mean survival time, dose: 16.0 mg/kg/injection, schedule: Q08DX002 (ip), vehicle: saline): 100 % of control
- T/C (endpoint: mean survival time, dose: 32.0 mg/kg/injection, schedule: Q04DX003 (ip), vehicle: saline): 106 % of control
- T/C (endpoint: mean survival time, dose: 32.0 mg/kg/injection, schedule: Q08DX002 (ip), vehicle: saline): 112 % of control

SMILES: CS(=O)(=O)OCC(O)C(O)COS(C)(=O)=O (centres undefined)
- T/C (endpoint: mean survival time, dose: 440.0 mg/kg/injection, schedule: Q01DX001 (ip), vehicle: carboxymethylcellulose (CMC)): 92 % of control and 97 % of control
- T/C (endpoint: mean survival time, dose: 670.0 mg/kg/injection, schedule: Q01DX001 (ip), vehicle: carboxymethylcellulose (CMC)): 101 % of control and 100 % of control
- T/C (endpoint: mean survival time, dose: 1000.0 mg/kg/injection, schedule: Q01DX001 (ip), vehicle: carboxymethylcellulose (CMC)): 102 % of control and 100 % of control

SMILES: C[C@@H]1C[C@@H]([C@H](O)CC2CC(=O)NC(=O)C2)C(=O)[C@@H](C)C1
- T/C (endpoint: mean survival time, dose: 16.0 mg/kg/injection, schedule: Q01DX015 (ip), vehicle: saline): 121 % of control
- T/C (endpoint: mean survival time, dose: 24.0 mg/kg/injection, schedule: Q01DX015 (ip), vehicle: saline): 120 % of control
- T/C (endpoint: mean survival time, dose: 36.0 mg/kg/injection, schedule: Q01DX015 (ip), vehicle: saline): 116 % of control
- T/C (endpoint: mean survival time, dose: 44.0 mg/kg/injection, schedule: Q01DX001 (ip), vehicle: saline): 98 % of control
- T/C (endpoint: mean survival time, dose: 67.0 mg/kg/injection, schedule: Q01DX001 (ip), vehicle: saline): 104 % of control
- T/C (endpoint: mean survival time, dose: 100.0 mg/kg/injection, schedule: Q01DX001 (ip), vehicle: saline): 103 % of control
